Measurements reported in patent US20220409617A1, “Drug Formulations and Methods of Treatment for Metabolic Disorders” (The Regents of the University of California, priority 2019, published 2022).

Test system: AKT
Test: Insulin-stimulated AKT activation, western blot
Format: cell-based, mouse
Details: 3T3-L1 adipocytes; 3 h pre-treatment, C2-ceramide 50 or 100 μM, 893 5 or 10 μM; insulin 100 nM 15 min
Procedure: 3T3-L1 cells were maintained in DMEM with 10% FBS and 1% penicillin-streptomycin until induced to differentiate. 3T3-L1 pre-adipocytes were differentiated as described in (M. P. Valley, et al., Anal. Biochem. 505: 43-50, 2016, the disclosure of which is incorporated herein by reference) with slight modifications. Briefly, pre-adipocytes were grown to confluence. After 2 d, cells were induced with maintenance media containing 500 μM IBMX (15879, Sigma-Aldrich, St. Louis, Mo.), 1 μM dexamethasone (D4902, Sigma-Aldrich), 5 μg/mL bovine insulin (10516, Sigma-Aldrich), and 5 μM troglitazone (50-115-0786, ApexBio). Media was changed every 2-3 d for 7 d. On day 7 post-induction, media was changed to maintenance media+5 μg/mL bovine insulin. On day 9 post-induction, media was changed to maintenance media. Mature adipocytes were used 12-14 d post-induction for all experiments. […]
Mature adipocytes were serum starved for 16 h then treated with vehicle, ceramide (50 or 100 μM), or sphingolipid-like compound 893 (5 or 10 μM) in serum-free media supplemented with 0.2% fatty-acid free BSA for 3 h after which 100 nM insulin was added for 15 min. […] Protein content was quantified in the supernatant using the Pierce™ BCA Protein Assay Kit (Thermo-Fisher Scientific, Waltham, Mass.). […]

CCCCCCCCc1ccc([C@H]2CCN[C@@H]2CO)cc1.Cl [compound 893]
Insulin-stimulated AKT activation: but not sphingolipid-like compound 893, interfered with insulin-stimulated AKT activation
